Results reported in patent US12686690B2, “Macrocyclic urea orexin receptor agonists” (Merck Sharp & Dohme LLC, priority 2020, dated 2026).

Molecular target: T1, hOX2R (Homo sapiens, UniProt O43614)
T1 construct: expressed in transfected cells; host or cells: CHO cells (G418 selection)
T1 sequence (O43614 1-444): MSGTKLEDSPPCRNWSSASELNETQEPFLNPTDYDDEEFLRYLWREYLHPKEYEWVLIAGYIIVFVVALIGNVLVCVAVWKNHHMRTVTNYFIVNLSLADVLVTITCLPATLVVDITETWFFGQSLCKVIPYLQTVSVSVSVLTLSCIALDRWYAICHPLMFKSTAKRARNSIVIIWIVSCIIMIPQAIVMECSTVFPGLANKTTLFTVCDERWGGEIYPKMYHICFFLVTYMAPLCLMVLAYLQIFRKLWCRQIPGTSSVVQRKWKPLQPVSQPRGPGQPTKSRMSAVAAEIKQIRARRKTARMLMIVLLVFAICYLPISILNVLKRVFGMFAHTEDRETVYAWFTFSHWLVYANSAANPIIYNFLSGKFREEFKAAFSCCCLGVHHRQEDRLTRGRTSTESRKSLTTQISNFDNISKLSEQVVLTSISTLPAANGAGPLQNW
Assay: hOX2R IPone assay (orexin receptor agonism)
Format: cell-based
Settings: IPone readout; for hOX2R_Ipone max %act: maximal activation; for EC50: orexin receptor agonist, read-out: hOX2R_IPone EC50

Q: Which hOX2R_Ipone max %act does the source give for `CCN1C(=O)NC(CCCC(F)F)CCCCCOc2nc(cn3ccnc23)-c2cc(ncc2OC)[C@H]1C` (stereo partly drawn) [Example 184, (3R,E)-7-(4,4-difluorobutyl)-4-ethyl-25-methoxy-3-methyl-13-oxa-4,6-diaza-1(6,8)-imidazo[1,2-a]pyrazina-2(4,2)-pyridinacyclotridecaphan-5-one] here?
A: The hOX2R_Ipone max %act was 101.1%.

Q: What about the EC50 of the same molecule?
A: Its EC50 is 0.78 nM.

Q: With `CCN1C(=O)NC(COC(C)C)CCCCCOc2nc(cn3ccnc23)-c2cc(ncc2OC)[C@H]1C` (stereo partly drawn) [Example 185, (3R,E)-4-ethyl-7-(isopropoxymethyl)-25-methoxy-3-methyl-13-oxa-4,6-diaza-1(6,8)-imidazo[1,2-a]pyrazina-2(4,2)-pyridinacyclotridecaphan-5-one] as the molecule, how does the hOX2R_Ipone max %act read?
A: The hOX2R_Ipone max %act was 102.1%.

Q: And the EC50?
A: Its EC50 is 2.03 nM.

Q: `CCN1C(=O)NC(CC(F)F)CCCCCOc2nc(cn3ccnc23)-c2cc(ncc2OC)[C@H]1C` (stereo partly drawn) [Example 186, (3R,E)-7-(2,2-difluoroethyl)-4-ethyl-25-methoxy-3-methyl-13-oxa-4,6-diaza-1(6,8)-imidazo[1,2-a]pyrazina-2(4,2)-pyridinacyclotridecaphan-5-one] was tested. Which hOX2R_Ipone max %act did it give?
A: The hOX2R_Ipone max %act was 102.3%.

Q: What about the EC50 of the same molecule?
A: Its EC50 is 1.02 nM.

Q: With `CCN1C(=O)NC(COCC(F)(F)F)CCCCCOc2nc(cn3ccnc23)-c2cc(ncc2OC)[C@H]1C` (stereo partly drawn) [Example 188, (3R,E)-4-ethyl-25-methoxy-3-methyl-7-((2,2,2-trifluoroethoxy)methyl)-13-oxa-4,6-diaza-1(6,8)-imidazo [1,2-a]pyrazina-2(4,2)-pyridinacyclotridecaphan-5-one] as the molecule, how does the hOX2R_Ipone max %act read?
A: Its hOX2R_Ipone max %act is 100.6%.

Q: What about the EC50 of the same molecule?
A: The EC50 was 0.74 nM.

Q: What does the source list for `CCN1C(=O)NC(C2CCOC2)CCCCCOc2nc(cn3ccnc23)-c2cc(ncc2OC)[C@H]1C` (stereo partly drawn) [Example 189, (3R,E)-4-ethyl-25-methoxy-3-methyl-7-(tetrahydrofuran-3-yl)-13-oxa-4,6-diaza-1(6,8)-imidazo[1,2-a]pyrazina-2(4,2)-pyridinacyclotridecaphan-5-one]?
A: hOX2R_Ipone max %act: 99.85%; EC50: 0.69 nM

Q: For `CCN1C(=O)NC(C(C)OC)CCCCCOc2nc(cn3ccnc23)-c2cc(ncc2OC)[C@H]1C` (stereo partly drawn) [Example 191, (3R,E)-4-ethyl-25-methoxy-7-(1-methoxyethyl)-3-methyl-13-oxa-4,6-diaza-1(6,8)-imidazo[1,2-a]pyrazina-2(4,2)-pyridinacyclotridecaphan-5-one], which hOX2R_Ipone max %act is on record?
A: Its hOX2R_Ipone max %act is 102.3%.

Q: What about the EC50 of the same molecule?
A: The EC50 was 1.73 nM.

Q: How did the hOX2R_Ipone max %act turn out when `CCN1C(=O)NC(C2CC2(F)F)CCCCCOc2nc(cn3ccnc23)-c2cc(ncc2OC)[C@H]1C` (stereo partly drawn) [Example 192, (3R,E)-7-(2,2-difluorocyclopropyl)-4-ethyl-25-methoxy-3-methyl-13-oxa-4,6-diaza-1(6,8)-imidazo[1,2-a]pyrazina-2(4,2)-pyridinacyclotri-decaphan-5-one] was run?
A: The hOX2R_Ipone max %act was 100.9%.

Q: What about the EC50 of the same molecule?
A: Its EC50 is 0.46 nM.

Q: How did the hOX2R_Ipone max %act turn out when `CCN1C(=O)NC(C2CCCO2)CCCCCOc2nc(cn3ccnc23)-c2cc(ncc2OC)[C@H]1C` (stereo partly drawn) [Example 193, (3R,E)-4-ethyl-25-methoxy-3-methyl-7-(tetrahydrofuran-2-yl)-13-oxa-4,6-diaza-1(6,8)-imidazo[1,2-a]pyrazina-2(4,2)-pyridinacyclotri-decaphan-5-one] was run?
A: Its hOX2R_Ipone max %act is 100.7%.

Q: What about the EC50 of the same molecule?
A: The EC50 was 1.21 nM.

Q: With `CCN1C(=O)NC(CC#N)CCCCCOc2nc(cn3ccnc23)-c2cc(ncc2OC)[C@H]1C` (stereo partly drawn) [Example 194, 2-((3R,E)-4-ethyl-25-methoxy-3-methyl-5-oxo-13-oxa-4,6-diaza-1(6,8)-imidazo[1,2-a]pyrazina-2(4,2)-pyridinacyclotridecaphane-7-yl)acetonitrile] as the molecule, how does the hOX2R_Ipone max %act read?
A: Its hOX2R_Ipone max %act is 102.2%.

Q: What about the EC50 of the same molecule?
A: Its EC50 is 1.2 nM.

Q: Which hOX2R_Ipone max %act does the source give for `CCN1C(=O)NC(C2CC(F)(F)C2)CCCCCOc2nc(cn3ccnc23)-c2cc(ncc2OC)[C@H]1C` (stereo partly drawn) [Example 195, (3R,E)-7-(3,3-difluorocyclobutyl)-4-ethyl-25-methoxy-3-methyl-13-oxa-4,6-diaza-1(6,8)-imidazo[1,2-a]pyrazina-2(4,2)-pyridinacyclotri-decaphan-5-one] here?
A: The hOX2R_Ipone max %act was 101.4%.

Q: What about the EC50 of the same molecule?
A: The EC50 was 0.84 nM.

Q: How did the hOX2R_Ipone max %act turn out when `CCN1C(=O)NC(CCC#N)CCCCCOc2nc(cn3ccnc23)-c2cc(ncc2OC)[C@H]1C` (stereo partly drawn) [Example 196, 3-((3R,E)-4-ethyl-25-methoxy-3-methyl-5-oxo-13-oxa-4,6-diaza-1(6,8)-imidazo[1,2-a]pyrazina-2(4,2)-pyridinacyclotridecaphane-7-yl)propanenitrile] was run?
A: The hOX2R_Ipone max %act was 101.6%.

Q: What about the EC50 of the same molecule?
A: Its EC50 is 0.44 nM.

Q: `CCN1C(=O)NC(CCC(F)F)CCCCCOc2nc(cn3ccnc23)-c2cc(ncc2C2CC2)[C@H]1C` (stereo partly drawn) [Example 197, (3R,E)-25-cyclopropyl-7-(3,3-difluoropropyl)-4-ethyl-3-methyl-13-oxa-4,6-diaza-1(6,8)-imidazo[1,2-a]pyrazina-2(4,2)-pyridina-cyclotridecaphan-5-one] was tested. Which hOX2R_Ipone max %act did it give?
A: Its hOX2R_Ipone max %act is 105.4%.

Q: And the EC50?
A: The EC50 was 1.3 nM.

Q: For `CCN1C(=O)NC(CCC(F)(F)F)CCCCCOc2nc(cn3ccnc23)-c2cc(ncc2Cl)[C@H]1C` (stereo partly drawn) [Example 198, (3R,E)-25-chloro-4-ethyl-3-methyl-7-(3,3,3-trifluoropropyl)-13-oxa-4,6-diaza-1(6,8)-imidazo[1,2-a]pyrazina-2(4,2)-pyridinacyclotri-decaphan-5-one], which hOX2R_Ipone max %act is on record?
A: Its hOX2R_Ipone max %act is 103.1%.

Q: What about the EC50 of the same molecule?
A: The EC50 was 0.58 nM.

Q: Which hOX2R_Ipone max %act does the source give for `CCN1C(=O)NC(COC)CCCCCOc2nc(cn3ccnc23)-c2cc(ncc2F)[C@H]1C` (stereo partly drawn) [Example 199, (3R,E)-4-ethyl-25-fluoro-7-(methoxymethyl)-3-methyl-13-oxa-4,6-diaza-1(6,8)-imidazo[1,2-a]pyrazina-2(4,2)-pyridinacyclotridecaphan-5-one] here?
A: The hOX2R_Ipone max %act was 100.6%.

Q: What about the EC50 of the same molecule?
A: Its EC50 is 4.25 nM.

Q: `CCN1C(=O)NC(CCC(C)(F)F)CCCCCOc2nc(nn3ccnc23)-c2cc(ncc2OC)[C@H]1C` (stereo partly drawn) [Example 200, (3R,E)-7-(3,3-difluorobutyl)-4-ethyl-25-methoxy-3-methyl-13-oxa-4,6-diaza-1(2,4)-imidazo[2,1-f][1,2,4]triazina-2(4,2)-pyridinacyclo-tridecaphan-5-one] was tested. Which hOX2R_Ipone max %act did it give?
A: Its hOX2R_Ipone max %act is 99.5%.

Q: What about the EC50 of the same molecule?
A: Its EC50 is 0.53 nM.

Q: What does the source list for `CCN1C(=O)NC(CCC(F)F)CCCCCOc2nc(cn3ncnc23)-c2cc(ncc2C)[C@H]1C` (stereo partly drawn) [Example 201, (3R,E)-7-(3,3-difluoropropyl)-4-ethyl-25,3-dimethyl-13-oxa-4,6-diaza-1(6,8)-[1,2,4]triazolo[1,5-a]pyrazina-2(4,2)-pyridina-cyclotridecaphan-5-one]?
A: hOX2R_Ipone max %act: 101%; EC50: 3.68 nM

Q: How did the hOX2R_Ipone max %act turn out when `CCN1C(=O)NC(CCC(F)F)CCCCCOc2nc(nn3ccnc23)-c2cc(ncc2OC)[C@H]1C` (stereo partly drawn) [Example 202, (3R,E)-7-(3,3-difluoropropyl)-4-ethyl-25-methoxy-3-methyl-13-oxa-4,6-diaza-1(2,4)-imidazo[2,1-f][1,2,4]triazina-2(4,2)-pyridina-cyclotridecaphan-5-one] was run?
A: The hOX2R_Ipone max %act was 99.8%.

Q: And the EC50?
A: The EC50 was 1.7 nM.

Q: For `CCN1C(=O)NC(CC23CC(C2)C3)CCCCCOc2nc(nn3ccnc23)-c2cc(ncc2OC)[C@H]1C` (stereo partly drawn) [Example 203, (3R,E)-7-(bicyclo[1.1.1]pentan-1-ylmethyl)-4-ethyl-25-methoxy-3-methyl-13-oxa-4,6-diaza-1(2,4)-imidazo[2,1-f][1,2,4]triazina-2(4,2)-pyridinacyclotridecaphan-5-one], which hOX2R_Ipone max %act is on record?
A: The hOX2R_Ipone max %act was 100%.

Q: And the EC50?
A: Its EC50 is 11.4 nM.
